Assay results as given in patent US4068074A, “Cephalosporin derivatives having at the 3-position of the cephem ring a heterocyclic thiomethyl group with a carboxy or sulfo group and at the 7-position of the cephem ring an α-heterocylic acylaminophenyl-acetamide group” (priority 1974, dated 1978).
Values after ≈ are worked out from the molar mass of the structure shown. Read-outs that look alike come from different tables or passages of the source.

Key:
Type in all cases: cell-based
[1] = system: Bacillus megatherium 10778; assay: MIC against bacteria (Table I), strain (13)
From the text: (§1) Now, for illustrating the excellent pharmacological effects of the compounds of this invention, the values of MIC (γ/ml.) of the compounds against various bacteria are shown in Table 1, in which the compounds of this invention used are shown by example numbers.

[2] = system: Staphylococcus aureus 209P; assay: MIC against bacteria (Table I), strain (16)
From the text: as §1
(16) Staphylococcus aureus 209P

[3] = system: Psuedomonas ovalis IMA 1002; assay: MIC against bacteria (Table I), strain (6)
From the text: as §1
(6) Psuedomonas ovalis IMA 1002

[4] = system: Escherichia coli kauffmann 0-1; assay: MIC against bacteria (Table I), strain (7)
From the text: as §1
(7) Escherichia coli kauffmann 0-1

[5] = system: Staphylococcus Shimanishi; assay: MIC against bacteria (Table I), strain (17); details: Staphylococcus
From the text: as §1
(17) Staphylococcus Shimanishi

[6] = system: Shigella flexneri 2a 1675; assay: MIC against bacteria (Table I), strain (11); details: 2A1675
From the text: as §1

[7] = system: Salmonella typhi H901 W; assay: MIC against bacteria (Table I), strain (9); details: Salmonella enterica, TYPHI
From the text: as §1
(9) Salmonella typhi H901 W

[8] = system: Proteus vulgaris 0X 19US; assay: MIC against bacteria (Table I), strain (2); details: 0X19US; (2) Proteus vulgaris 0X 19US; read-out: MIC
From the text: as §1
(2) Proteus vulgaris 0X 19US

[9] = system: Proteus mirabilis IXM OM-19; assay: MIC against bacteria (Table I), strain (3); details: IXMOM19
From the text: as §1
(3) Proteus mirabilis IXM OM-19

[10] = system: Micrococcus flavus ATCC 10240; assay: MIC against bacteria (Table I), strain (15); details: ATCC10240
From the text: as §1
(15) Micrococcus flavus ATCC 10240

[11] = system: Staphylococcus Onuma; assay: MIC against bacteria (Table I), strain (18); details: (18) Staphylococcus Onuma; read-out: MIC
From the text: as §1
(18) Staphylococcus Onuma

[12] = system: Salmonella enteritidis; assay: MIC against bacteria (Table I), strain (10); details: Salmonella enterica
From the text: as §1
(10) Salmonella enteritidis

[13] = system: Pseudomonas aeruginosa 99 (Gentamycin resistant); assay: MIC against bacteria (Table I), strain (5)
From the text: as §1
(5) Pseudomonas aeruginosa 99 (Gentamycin resistant)

[14] = system: Shigella sonnei II 37148; assay: MIC against bacteria (Table I), strain (12); details: II37148
From the text: as §1

[15] = system: Bacillus subtilis ATCC 6633; assay: MIC against bacteria (Table I), strain (14); details: ATCC6633
From the text: as §1
(14) Bacillus subtilis ATCC 6633

[16] = system: Klebsiella pneumoniae ATCC 10031; assay: MIC against bacteria (Table I), strain (8); details: ATCC10031
From the text: as §1
(8) Klebsiella pneumoniae ATCC 10031

[17] = (13) Bacillus megatherium 10778, read-out: MIC
[18] = (6) Psuedomonas ovalis IMA 1002, read-out: MIC
[19] = (3) Proteus mirabilis IXM OM-19, read-out: MIC
[20] = (5) Pseudomonas aeruginosa 99 (Gentamycin resistant), read-out: MIC
[21] = (14) Bacillus subtilis ATCC 6633, read-out: MIC
[22] = (8) Klebsiella pneumoniae ATCC 10031, read-out: MIC
[23] = (11) Shigella flexneri 2a 1675, read-out: MIC
[24] = (15) Micrococcus flavus ATCC 10240, read-out: MIC
[25] = (12) Shigella sonnei II 37148, read-out: MIC

SMILES	MIC [1, 17] [mg/L]	MIC [3, 18] [mg/L]	MIC ([4]; Escherichia coli) [mg/L]	MIC [5] [mg/L]	MIC [7] [mg/L]	MIC [8] [mg/L]	MIC [9, 19] [mg/L]	MIC ([10]; Micrococcus flavus) [mg/L]	MIC [11] [mg/L]	MIC ([12]; ENTERITIDIS) [mg/L]	MIC [13, 20] [mg/L]	MIC [15, 21] [mg/L]	MIC [16, 22] [mg/L]	MIC ([2]; Staphylococcus aureus, 209P) [mg/L]	MIC [6, 23] [mg/L]	MIC [10, 24] [mg/L]	MIC [14, 25] [mg/L]	MIC ([1]; Bacillus, 10778) [mg/L]	MIC ([15]; Bacillus subtilis) [mg/L]	further results
O=C(O)CSc1nnc(SCC2=C(C(=O)O)N3C(=O)[C@@H](NC(=O)[C@H](NC(=O)c4csccc4=O)c4ccc(O)cc4)[C@H]3SC2)s1 [Example 31, 7-[D-α-(4-thiopyrone-3-carboxamido)-α-p-hydroxyphenylacetamido]-3-[5-carboxymethylthio-1,3,4-thiadiazol-2-yl]thiomethyl-Δ^3-cephem-4-carboxylic acid]	0.39 (≈ 0.551 µM)	50 (≈ 70.6 µM)	3.13 (≈ 4.42 µM)	3.13 (≈ 4.42 µM)	0.39 (≈ 0.551 µM)	1.56 (≈ 2.2 µM)	0.39 (≈ 0.551 µM)	3.13 (≈ 4.42 µM)	6.25 (≈ 8.83 µM)	0.39 (≈ 0.551 µM)	50 (≈ 70.6 µM)	0.39 (≈ 0.551 µM)	6.25 (≈ 8.83 µM)	–	–	–	–	–	–	MIC ([2]; (16) Staphylococcus aureus 209P, read-out: MIC): 0.39 mg/L (≈ 0.551 µM); MIC ([6]; Shigella flexneri): 0.78 mg/L (≈ 1.1 µM); MIC ([14]; Shigella sonnei): 3.13 mg/L (≈ 4.42 µM)
O=C(O)CCCc1nnc(SCC2=C(C(=O)O)N3C(=O)[C@@H](NC(=O)[C@H](NC(=O)c4cnccc4O)c4ccccc4)[C@H]3SC2)s1 [Example 35, 7-[D-α-(4-hydroxynicotinoylamido)-α-phenylacetamido]-3-[5-(3-carboxypropyl)-1,3,4-thiadiazol-2yl]-thiomethyl-Δ^3 cephem-4-carboxylic acid]	0.78 (≈ 1.16 µM)	–	–	–	1.56 (≈ 2.33 µM)	50 (≈ 74.5 µM)	0.78 (≈ 1.16 µM)	–	12.5 (≈ 18.6 µM)	–	–	0.78 (≈ 1.16 µM)	–	1.56 (≈ 2.33 µM)	1.56 (≈ 2.33 µM)	3.13 (≈ 4.67 µM)	6.25 (≈ 9.32 µM)	–	–	MIC [3]: 6.25 mg/L (≈ 9.32 µM); MIC ([4]; (7) Escherichia coli kauffmann 0-1, read-out: MIC): 3.13 mg/L (≈ 4.67 µM); MIC ([12]; (10) Salmonella enteritidis, read-out: MIC): 0.78 mg/L (≈ 1.16 µM); MIC ([13]; Pseudomonas aeruginosa): 6.25 mg/L (≈ 9.32 µM); MIC ([16]; Klebsiella pneumoniae): 6.25 mg/L (≈ 9.32 µM)
Cc1cc(O)c(C(=O)N[C@@H](C(=O)N[C@@H]2C(=O)N3C(C(=O)O)=C(CSc4nnc(CCCC(=O)O)s4)CS[C@H]23)c2ccccc2)cn1 [Example 36, 7-[D-α-(4-hydroxy-6-methylnicotinoylamido)-α-phenylacetamido]-3-[5-(3-carboxypropyl)-1,3,4-thiadiazol-2-yl]thiomethyl-Δ^3-cephem-4-carboxylic acid]	–	25 (≈ 36.5 µM)	1.56 (≈ 2.28 µM)	–	1.56 (≈ 2.28 µM)	100 (≈ 146 µM)	0.39 (≈ 0.57 µM)	–	12.5 (≈ 18.3 µM)	1.56 (≈ 2.28 µM)	6.25 (≈ 9.13 µM)	–	6.25 (≈ 9.13 µM)	1.56 (≈ 2.28 µM)	0.78 (≈ 1.14 µM)	6.25 (≈ 9.13 µM)	3.13 (≈ 4.57 µM)	0.78 (≈ 1.14 µM)	1.56 (≈ 2.28 µM)	–
COc1cc(C)ncc1C(=O)N[C@@H](C(=O)N[C@@H]1C(=O)N2C(C(=O)O)=C(CSc3nnc(SCC(=O)O)s3)CS[C@H]12)c1ccccc1 [Example 37, 7[-α-(4-methoxy-6-methylnicotinoylamido)-α-phenylacetamido]-3-(5-carboxymethyl-thio-1,3,4-thiadiazol-2yl)-thiomethyl-Δ^3-cephem-4-carboxylic acid]	1.56 (≈ 2.22 µM)	25 (≈ 35.6 µM)	6.25 (≈ 8.89 µM)	6.25 (≈ 8.89 µM)	6.25 (≈ 8.89 µM)	25 (≈ 35.6 µM)	–	6.25 (≈ 8.89 µM)	12.5 (≈ 17.8 µM)	3.13 (≈ 4.45 µM)	12.5 (≈ 17.8 µM)	0.78 (≈ 1.11 µM)	12.5 (≈ 17.8 µM)	1.56 (≈ 2.22 µM)	3.13 (≈ 4.45 µM)	–	6.25 (≈ 8.89 µM)	–	–	MIC ([9]; Proteus mirabilis): 3.13 mg/L (≈ 4.45 µM)
Cc1cc(O)c(C(=O)N[C@@H](C(=O)N[C@@H]2C(=O)N3C(C(=O)O)=C(CSc4nnc(CC(=O)O)s4)CS[C@H]23)c2ccccc2)cn1 [Example 38, 7-[D-α-(4-hydroxy-6-methylnicotinoylamido)-α-phenylacetamido]-3-(5-carboxymethyl-1,3,4-thiadiazol-2-yl)-thiomethyl-Δ^3-cephem-4-carboxylic acid]	–	50 (≈ 76.1 µM)	3.13 (≈ 4.77 µM)	–	1.56 (≈ 2.38 µM)	–	0.78 (≈ 1.19 µM)	–	12.5 (≈ 19 µM)	1.56 (≈ 2.38 µM)	12.5 (≈ 19 µM)	–	12.5 (≈ 19 µM)	3.13 (≈ 4.77 µM)	1.56 (≈ 2.38 µM)	12.5 (≈ 19 µM)	3.13 (≈ 4.77 µM)	1.56 (≈ 2.38 µM)	1.56 (≈ 2.38 µM)	–
